Data reported in the supplement of paper PMC10307832.

Assays:
Assay in all cases: relative viability (nuclei count vs DMSO), 5 days (fraction); higher = more cells survive
RERF-LC-KJ = tested on: RERF-LC-KJ
In short: (§1)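 Dosing by pin tool came one day after lung cancer cell lines were seeded in 1536-well plates, using either one drug or a fixed anchor-drug dose plus five library-drug doses (not always all listed) in √10 steps. After 5 days, nuclei were counted on 4× images. Relative viability is treated-well nuclei count divided by vehicle-well nuclei count, and values are medians of duplicate plates.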

NCI-H1755 = tested on: NCI-H1755
In short: as §1

LC-2-ad = tested on: LC-2-ad
In short: as §1

A-427 = tested on: A-427
In short: as §1

NCI-H23 = tested on: NCI-H23
In short: as §1

NCI-H2170 = tested on: NCI-H2170
In short: as §1

UMC-11 = tested on: UMC-11
In short: as §1

NCI-H2347 = tested on: NCI-H2347
In short: as §1

LCLC-103H = tested on: LCLC-103H
In short: as §1

NCI-H1734 = tested on: NCI-H1734
In short: as §1

NCI-H1915 = tested on: NCI-H1915
In short: as §1

NCI-H1355 = tested on: NCI-H1355
In short: as §1

NCI-H650 = tested on: NCI-H650
In short: as §1

NCI-H1792 = tested on: NCI-H1792
In short: as §1

HCC-366 = tested on: HCC-366
In short: as §1

SK-MES-1 = tested on: SK-MES-1
In short: as §1

NCI-H1993 = tested on: NCI-H1993
In short: as §1

SW 1573 = tested on: SW 1573
In short: as §1

SK-LU-1 = tested on: SK-LU-1
In short: as §1

NCI-H2228 = tested on: NCI-H2228
In short: as §1

HCC-827 = tested on: HCC-827
In short: as §1

NCI-H1975 = tested on: NCI-H1975
In short: as §1

With `CN1CCN(CCOc2cc(OC3CCOCC3)c3c(Nc4c(Cl)ccc5c4OCO5)ncnc3c2)CC1` [Saracatinib] + CS(=O)(=O)N1CCN(Cc2cc3nc(-c4cccc5[nH]ncc45)nc(N4CCOCC4)c3s2)CC1 [Pictilisib] (partner 1 µM) the relative viability (RERF-LC-KJ; first compound 0.02 µM) was 0.503, the relative viability (RERF-LC-KJ; first compound 0.2 µM) was 0.521 and the relative viability (RERF-LC-KJ; first compound 0.6325 µM) was 0.604. The relative viability (RERF-LC-KJ; first compound 2 µM) was 0.362, the relative viability (NCI-H1755; first compound 0.02 µM) was 0.424 and the relative viability (NCI-H1755; first compound 0.2 µM) was 0.408. It also gave a relative viability (NCI-H1755; first compound 0.6325 µM) of 0.431, a relative viability (NCI-H1755; first compound 2 µM) of 0.26 and a relative viability (LC-2-ad; first compound 0.02 µM) of 0.578. The relative viability (LC-2-ad; first compound 0.6325 µM) was 0.443, the relative viability (LC-2-ad; first compound 2 µM) was 0.362 and the relative viability (A-427; first compound 0.02 µM) was 0.652. For the same molecule, the relative viability (A-427; first compound 0.2 µM) was 0.571, the relative viability (A-427; first compound 0.6325 µM) was 0.767 and the relative viability (A-427; first compound 2 µM) was 0.616. The relative viability (NCI-H23; first compound 0.02 µM) was 0.517, the relative viability (NCI-H23; first compound 0.6325 µM) was 0.424 and the relative viability (NCI-H23; first compound 2 µM) was 0.35. It also gave a relative viability (NCI-H2170; first compound 0.02 µM) of 0.355, a relative viability (NCI-H2170; first compound 0.2 µM) of 0.233 and a relative viability (NCI-H2170; first compound 0.6325 µM) of 0.234. For the same molecule, the relative viability (NCI-H2170; first compound 2 µM) was 0.208, the relative viability (UMC-11; first compound 0.02 µM) was 0.691 and the relative viability (UMC-11; first compound 0.6325 µM) was 0.836. It also gave a relative viability (UMC-11; first compound 2 µM) of 0.679, a relative viability (NCI-H2347; first compound 0.02 µM) of 0.654 and a relative viability (NCI-H2347; first compound 0.2 µM) of 0.6. The relative viability (NCI-H2347; first compound 0.6325 µM) was 0.772, the relative viability (NCI-H2347; first compound 2 µM) was 0.527 and the relative viability (LCLC-103H; first compound 0.02 µM) was 0.547. The relative viability (LCLC-103H; first compound 0.2 µM) was 0.671, the relative viability (LCLC-103H; first compound 0.6325 µM) was 0.649 and the relative viability (LCLC-103H; first compound 2 µM) was 0.455. The relative viability (NCI-H1734; first compound 0.02 µM) was 0.475, the relative viability (NCI-H1734; first compound 0.6325 µM) was 0.435 and the relative viability (NCI-H1734; first compound 2 µM) was 0.387. For the same molecule, the relative viability (NCI-H1915; first compound 0.02 µM) was 0.952, the relative viability (NCI-H1915; first compound 0.2 µM) was 0.79 and the relative viability (NCI-H1915; first compound 0.6325 µM) was 0.928. It also gave a relative viability (NCI-H1915; first compound 2 µM) of 0.767, a relative viability (NCI-H1355; first compound 0.02 µM) of 0.497 and a relative viability (NCI-H1355; first compound 0.2 µM) of 0.467. It also gave a relative viability (NCI-H1355; first compound 0.6325 µM) of 0.516, a relative viability (NCI-H1355; first compound 2 µM) of 0.461 and a relative viability (NCI-H650; first compound 0.02 µM) of 0.771. For the same molecule, the relative viability (NCI-H650; first compound 0.2 µM) was 0.837, the relative viability (NCI-H650; first compound 0.6325 µM) was 0.871 and the relative viability (NCI-H650; first compound 2 µM) was 0.86. The relative viability (NCI-H1792; first compound 0.02 µM) was 0.293, the relative viability (NCI-H1792; first compound 0.2 µM) was 0.239 and the relative viability (NCI-H1792; first compound 0.6325 µM) was 0.302. It also gave a relative viability (NCI-H1792; first compound 2 µM) of 0.263, a relative viability (HCC-366; first compound 0.02 µM) of 0.132 and a relative viability (HCC-366; first compound 0.2 µM) of 0.151. For the same molecule, the relative viability (HCC-366; first compound 0.6325 µM) was 0.107, the relative viability (HCC-366; first compound 2 µM) was 0.103 and the relative viability (SK-MES-1; first compound 0.02 µM) was 0.375. The relative viability (SK-MES-1; first compound 0.2 µM) was 0.256, the relative viability (SK-MES-1; first compound 0.6325 µM) was 0.267 and the relative viability (SK-MES-1; first compound 2 µM) was 0.183. For the same molecule, the relative viability (NCI-H1993; first compound 0.02 µM) was 0.655, the relative viability (NCI-H1993; first compound 0.2 µM) was 0.969 and the relative viability (NCI-H1993; first compound 2 µM) was 0.652. For the same molecule, the relative viability (SW 1573; first compound 0.02 µM) was 0.47, the relative viability (SW 1573; first compound 0.2 µM) was 0.451 and the relative viability (SW 1573; first compound 0.6325 µM) was 0.456. It also gave a relative viability (SW 1573; first compound 2 µM) of 0.295, a relative viability (SK-LU-1; first compound 0.02 µM) of 0.443 and a relative viability (SK-LU-1; first compound 0.2 µM) of 0.419. The relative viability (SK-LU-1; first compound 0.6325 µM) was 0.388, the relative viability (SK-LU-1; first compound 2 µM) was 0.226 and the relative viability (NCI-H2228; first compound 0.02 µM) was 0.385. It also gave a relative viability (NCI-H2228; first compound 0.2 µM) of 0.206, a relative viability (NCI-H2228; first compound 0.6325 µM) of 0.244 and a relative viability (NCI-H2228; first compound 2 µM) of 0.207. For the same molecule, the relative viability (HCC-827; first compound 0.02 µM) was 1.1, the relative viability (HCC-827; first compound 0.2 µM) was 0.499 and the relative viability (HCC-827; first compound 0.6325 µM) was 0.501. The relative viability (HCC-827; first compound 2 µM) was 0.323, the relative viability (NCI-H1975; first compound 0.02 µM) was 0.331 and the relative viability (NCI-H1975; first compound 0.6325 µM) was 0.298. The relative viability (NCI-H1975; first compound 2 µM) was 0.174.
